Data from patent EP0539204B1 (priority 1991, dated 1993).
≈ marks a conversion by molar mass, not a printed value.

Legend:
[1] = target: N2 influenza neuraminidase (Influenza A virus, UniProt Q91MA2); assay: biochemical; type: biochemical, influenza virus (virion X31); settings: for NA1: pH 6.5
[2] = system: influenza A/Singapore/1/57 (H2N2); assay: microbe, parasite or virus in culture; type: cell-based; settings: for IC50: Influenza A virus, H2N2, MDCK, 72 h, read-out: I50 Plaque Assay Flu A; for I50 Plaque Assay Flu A: reduction of viral plaque formation in MDCK cells, 3 days at 37°C
[3] = system: influenza B/Victoria/102/85; assay: microbe, parasite or virus in culture; type: cell-based; settings: for IC50: Influenza B virus, MDCK, 72 h, read-out: I50 Plaque Assay Flu B

Chain of N2 influenza neuraminidase (Q91MA2 whole entry, looked up): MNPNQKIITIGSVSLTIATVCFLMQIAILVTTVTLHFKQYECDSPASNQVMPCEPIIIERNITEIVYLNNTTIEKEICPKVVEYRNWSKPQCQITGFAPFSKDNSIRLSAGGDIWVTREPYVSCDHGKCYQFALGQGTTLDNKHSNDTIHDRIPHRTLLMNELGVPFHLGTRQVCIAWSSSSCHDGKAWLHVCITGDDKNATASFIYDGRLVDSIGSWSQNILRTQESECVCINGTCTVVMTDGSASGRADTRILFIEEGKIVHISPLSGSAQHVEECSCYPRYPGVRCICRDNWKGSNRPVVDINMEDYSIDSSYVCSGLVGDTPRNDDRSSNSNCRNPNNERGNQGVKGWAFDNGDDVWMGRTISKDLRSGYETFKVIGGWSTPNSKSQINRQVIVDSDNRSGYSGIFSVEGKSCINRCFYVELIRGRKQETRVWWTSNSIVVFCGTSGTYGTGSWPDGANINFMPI

Row | Molecule | IC50 [1] [µM] | IC50 [2] [µg/mL] | IC50 [3] [µg/mL] | NA1 [1] [µg/mL] | I50 Plaque Assay Flu A [2] [µg/mL] | I50 Plaque Assay Flu B [3] [µg/mL]
1 | CCOC(=O)NC(=N)N[C@H]1C=C(C(=O)O)O[C@@H]([C@H](O)[C@H](O)CO)[C@@H]1NC(C)=O [Example 5, 5-(Acetylamino)-4-[[amino(ethoxycarbonylimino)methyl]amino]-2,6-anhydro-3,4,5-trideoxy-D-glycero-D-galacto-non-2-enonic acid] | 17.1 | 1.7 (≈ 4.2 µM) | 0.6 (≈ 1.48 µM) |  |  | 
2 | 5-(Acetylamino)-4-[[amino(aminoimino)methyl]amino]-2,6-anhydro-3,4,5-trideoxy-D-glycero-D-galacto-non-2-enonic acid [Example 1] |  |  |  | 1.3 | 2.9 | 3.0
3 | CNC(=N)N[C@H]1C=C(C(=O)O)O[C@@H]([C@H](O)[C@H](O)CO)[C@@H]1NC(C)=O [Example 3, 5-(Acetylamino)-4-[[amino(methylimino)methyl]amino]-2,6-anhydro-3,4,5-trideoxy-D-glycero-D-galacto-non-2-enonic acid] | 12.1 | 3 (≈ 8.66 µM) |  |  |  | 
4 | 5-(Acetylamino)-4-[[amino(hydroxyimino)methyl]amino]-2,6-anhydro-3,4,5-trideoxy-D-glycero-D-galacto-non-2-enonic acid [Example 2] |  |  |  | 0.6 | 0.1 | <0.1
5 | CC(=O)N[C@H]1[C@H]([C@H](O)[C@H](O)CO)OC(C(=O)O)=C[C@@H]1NC(=N)N[N+](=O)[O-] [Example 4, 5-(Acetylamino)-4-[[amino(nitroimino)methyl]amino]-2,6-anhydro-3,4,5-trideoxy-D-glycero-D-galacto-non-2-enonic acid] | 2.65 | 30 (≈ 79.5 µM) | 24 (≈ 63.6 µM) |  |  | 
